Experimental data: patent US4382934A, “Isatin derivatives, processes for the preparation thereof and pharmaceutical composition comprising the same” (Fujisawa Pharmaceutical Co., Ltd., priority 1978, dated 1983)

Tested on: anaphylactic asthma in guinea-pigs
Test: Antagonism to anaphylactic asthma in guinea-pigs
Assay type: in vivo, guinea-pig (male Hartley)
Conditions: 30 min before egg albumin aerosol; for Inhibitory effect of anaphylactic asthma in guinea-pig: survival more than 2 hours
Protocol: (1) Preparation of rabbit antiserum against egg albumin
Equal volumes of a saline solution of egg albumin (200 mg./ml.) and of Freund's Complete Ajuvant were mixed and emulsified. Each male New Zealand white strain rabbits, each weighing 2 to 2.5 kg., received an intramuscular injection of 0.5 ml. of the emulsion in the left and right thigh regions. One week later, they received an intradermal injection of 0.25 ml. of a saline solution of egg albumin (concentration: 20 mg./ml.) in the different four sites of the dorsal skin surface three times every other week. Blood samples were collected from the carotid artery one week after the last injection.
(2) Determination of Passive Cutaneous Anaphylaxis (PCA) titer
The level of anaphylactic anti-egg albumin antibodies in pools of sera were determined by passive cutaneous anaphylaxis (PCA) reactions using shaven Hartley strain test guinea-pigs.
Antiserum was serially diluted (two fold) in saline and 0.1 ml. of each antiserum dilution were injected intradermally into the dorsal skin surface of the test guinea-pigs. 24 Hours after intradermal sensitization,Egg albumin-specific PCA reactions were elicited by intravenous injection of 10 mg. of egg albumin in 1 ml. of 1% Evans blue dye dissolved in saline. Reactions were read and recorded as the highest dilution of serum evoking threshold PCA reactivity (5 mm diameter).
(3) Antagonism to anaphylactic asthma in guinea-pigs
Male Hartley stain guinea-pigs, weighing 305 to 400 g, were used. Animals were sensitized by an intravenous injection of rabbit antiserum against egg albumin (4000 PCA titer) with 0.5 ml./animal. After 24 hours, animals were placed individually in a plastic chamber of 5.3 liter volume. An aerosol of 5% egg albumin solution was sprayed in the chamber at a rate of 0.16 ml./min with a commercial nebulizer. The test compound was given to the animals orally 30 minutes before the challenge with the egg albumin solution. Each dose group consisted of ten animals. The inhibitory effect of the test compound was determined from the number of surviving animals more than 2 hours after spray of the antigen. The ED50 value (dose to be required 50% protection from death) was calculated according to Litchfield-Wilcoxon method.

O=C1C(=O)N(CCCN2CCN(C(c3ccccc3)c3ccccc3)CC2)c2ccccc21 [1-[3-(4-Benzhydryl-1-piperazinyl)propyl]isatin]
Inhibitory effect of anaphylactic asthma in guinea-pig (0.1 mg./kg. P.O.): 0% | Inhibitory effect of anaphylactic asthma in guinea-pig (1.0 mg./kg. P.O.): 20% | Inhibitory effect of anaphylactic asthma in guinea-pig (3.2 mg./kg. P.O.): 40% | Inhibitory effect of anaphylactic asthma in guinea-pig (10.0 mg./kg. P.O.): 80% | Inhibitory effect of anaphylactic asthma in guinea-pig (32.0 mg./kg. P.O.): 100% | Inhibitory effect of anaphylactic asthma in guinea-pig (100.0 mg./kg. P.O.): 100% | ED50 (Cavia porcellus, po, 2 h, P.O., Litchfield-Wilcoxon method, read-out: ED50 (dose to be required 50% protection from death)): 3.4 mg/kg
